Reference: ChEMBL document CHEMBL4507261, “Data for DCP probe A-192621” (2021)

How the values were obtained:
[1] = target: Serine/threonine-protein kinase MRCK alpha (Homo sapiens) (UniProt Q5VT25); conditions: Compound concentration 1000.0 nM
[2] = target: Endothelin-1 receptor (Homo sapiens) (UniProt P25101); conditions: filed as agonist, Compound concentration 10.0 uM
[3] = target: Peripheral plasma membrane protein CASK (Homo sapiens) (UniProt O14936); conditions: Compound concentration 1000.0 nM
Sequence of Peripheral plasma membrane protein CASK (Homo sapiens) (O14936 whole entry): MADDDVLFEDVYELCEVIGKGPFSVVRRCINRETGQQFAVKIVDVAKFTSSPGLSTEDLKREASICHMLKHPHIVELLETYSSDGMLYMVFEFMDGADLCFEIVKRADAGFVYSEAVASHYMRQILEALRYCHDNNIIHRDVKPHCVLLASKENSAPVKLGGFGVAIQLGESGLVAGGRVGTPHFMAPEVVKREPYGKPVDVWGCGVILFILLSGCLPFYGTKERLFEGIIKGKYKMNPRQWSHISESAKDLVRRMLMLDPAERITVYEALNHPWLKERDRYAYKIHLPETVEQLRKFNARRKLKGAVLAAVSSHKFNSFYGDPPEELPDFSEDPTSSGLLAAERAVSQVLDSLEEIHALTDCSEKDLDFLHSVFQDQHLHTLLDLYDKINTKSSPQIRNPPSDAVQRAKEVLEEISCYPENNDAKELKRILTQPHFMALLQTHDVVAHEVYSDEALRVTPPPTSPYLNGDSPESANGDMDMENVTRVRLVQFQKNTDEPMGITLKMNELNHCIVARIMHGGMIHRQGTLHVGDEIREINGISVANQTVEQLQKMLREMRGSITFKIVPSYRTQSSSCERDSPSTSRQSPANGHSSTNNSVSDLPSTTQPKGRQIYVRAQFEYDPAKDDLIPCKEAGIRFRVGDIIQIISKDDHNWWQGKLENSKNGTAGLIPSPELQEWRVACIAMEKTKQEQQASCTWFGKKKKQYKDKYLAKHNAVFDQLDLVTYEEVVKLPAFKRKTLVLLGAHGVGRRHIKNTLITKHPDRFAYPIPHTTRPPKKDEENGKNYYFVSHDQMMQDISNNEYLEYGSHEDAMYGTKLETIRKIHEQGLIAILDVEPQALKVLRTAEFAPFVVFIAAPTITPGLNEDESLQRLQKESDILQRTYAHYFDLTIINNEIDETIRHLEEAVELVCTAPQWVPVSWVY

[4] = target: Dual specificity protein kinase TTK (Homo sapiens) (UniProt P33981); conditions: Compound concentration 1000.0 nM
[5] = target: Maternal embryonic leucine zipper kinase (Homo sapiens) (UniProt Q14680); conditions: Compound concentration 1000.0 nM
[6] = target: Serine/threonine-protein kinase PAK 5 (Homo sapiens) (UniProt Q9P286); conditions: Compound concentration 1000.0 nM
[7] = target: TRAF2 and NCK-interacting protein kinase (Homo sapiens) (UniProt Q9UKE5); conditions: Compound concentration 1000.0 nM
[8] = target: Bone morphogenetic protein receptor type-1B (Homo sapiens) (UniProt O00238); conditions: Compound concentration 1000.0 nM
[9] = tested on: Epidermal growth factor receptor (Homo sapiens), P00533 [G719C]; conditions: Compound concentration 1000.0 nM
[10] = target: Cyclin-dependent kinase 14 (Homo sapiens) (UniProt O94921); conditions: Compound concentration 1000.0 nM
[11] = target: Ribosomal protein S6 kinase alpha-2 (Homo sapiens) (UniProt Q15349); conditions: Compound concentration 1000.0 nM
Sequence of Ribosomal protein S6 kinase alpha-2 (Homo sapiens) (Q15349 whole entry, canonical isoform): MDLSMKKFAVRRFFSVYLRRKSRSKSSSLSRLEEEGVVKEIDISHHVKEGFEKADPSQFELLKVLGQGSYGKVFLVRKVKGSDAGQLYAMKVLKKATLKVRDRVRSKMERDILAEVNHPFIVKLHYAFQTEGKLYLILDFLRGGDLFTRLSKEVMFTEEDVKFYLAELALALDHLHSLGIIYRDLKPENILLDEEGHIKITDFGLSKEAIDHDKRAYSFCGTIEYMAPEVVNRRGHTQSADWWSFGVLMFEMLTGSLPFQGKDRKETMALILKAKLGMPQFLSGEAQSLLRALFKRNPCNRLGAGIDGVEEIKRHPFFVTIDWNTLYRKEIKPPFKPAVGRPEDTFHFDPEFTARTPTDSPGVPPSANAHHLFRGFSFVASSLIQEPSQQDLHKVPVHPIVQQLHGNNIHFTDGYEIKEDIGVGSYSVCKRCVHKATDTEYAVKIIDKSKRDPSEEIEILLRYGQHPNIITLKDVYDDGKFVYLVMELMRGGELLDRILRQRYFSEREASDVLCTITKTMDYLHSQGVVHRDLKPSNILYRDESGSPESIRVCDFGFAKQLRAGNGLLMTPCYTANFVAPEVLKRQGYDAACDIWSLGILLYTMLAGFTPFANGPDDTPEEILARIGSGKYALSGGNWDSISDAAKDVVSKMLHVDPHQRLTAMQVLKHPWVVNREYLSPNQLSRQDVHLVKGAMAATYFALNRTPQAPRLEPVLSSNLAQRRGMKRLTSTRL

[12] = tested on: Phosphatidylinositol 4,5-bisphosphate 3-kinase catalytic subunit alpha isoform (Homo sapiens), P42336 [E545A]; conditions: Compound concentration 1000.0 nM
[13] = tested on: ALK tyrosine kinase receptor (Homo sapiens), Q9UM73 [L1196M]; conditions: Compound concentration 1000.0 nM
[14] = target: Dual specificity mitogen-activated protein kinase kinase 3 (Homo sapiens) (UniProt P46734); conditions: Compound concentration 1000.0 nM
[15] = tested on: Receptor-type tyrosine-protein kinase FLT3 (Homo sapiens), P36888 [D835H]; conditions: Compound concentration 1000.0 nM
[16] = target: Cyclin-dependent kinase-like 1 (Homo sapiens) (UniProt Q00532); conditions: Compound concentration 1000.0 nM
Sequence of Cyclin-dependent kinase-like 1 (Homo sapiens) (Q00532 whole entry): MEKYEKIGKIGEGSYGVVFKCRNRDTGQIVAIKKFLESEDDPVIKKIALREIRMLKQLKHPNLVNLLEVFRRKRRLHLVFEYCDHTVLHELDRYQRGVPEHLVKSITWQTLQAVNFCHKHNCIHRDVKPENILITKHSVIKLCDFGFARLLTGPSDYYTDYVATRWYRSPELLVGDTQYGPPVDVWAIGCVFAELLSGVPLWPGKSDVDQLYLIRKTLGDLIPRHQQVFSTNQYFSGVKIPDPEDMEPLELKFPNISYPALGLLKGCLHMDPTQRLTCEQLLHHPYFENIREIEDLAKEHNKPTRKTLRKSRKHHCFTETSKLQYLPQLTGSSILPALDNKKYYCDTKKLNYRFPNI

[17] = target: Mitogen-activated protein kinase 11 (Homo sapiens) (UniProt Q15759); conditions: Compound concentration 1000.0 nM
[18] = target: BMP-2-inducible protein kinase (Homo sapiens) (UniProt Q9NSY1); conditions: Compound concentration 1000.0 nM
[19] = target: Dual specificity tyrosine-phosphorylation-regulated kinase 2 (Homo sapiens) (UniProt Q92630); conditions: Compound concentration 1000.0 nM
[20] = target: Dual specificity testis-specific protein kinase 1 (Homo sapiens) (UniProt Q15569); conditions: Compound concentration 1000.0 nM
[21] = target: Casein kinase I isoform alpha-like (Homo sapiens) (UniProt Q8N752); conditions: Compound concentration 1000.0 nM
[22] = target: Dual specificity mitogen-activated protein kinase kinase 1 (Homo sapiens) (UniProt Q02750); conditions: Compound concentration 1000.0 nM
Sequence of Dual specificity mitogen-activated protein kinase kinase 1 (Homo sapiens) (Q02750 whole entry): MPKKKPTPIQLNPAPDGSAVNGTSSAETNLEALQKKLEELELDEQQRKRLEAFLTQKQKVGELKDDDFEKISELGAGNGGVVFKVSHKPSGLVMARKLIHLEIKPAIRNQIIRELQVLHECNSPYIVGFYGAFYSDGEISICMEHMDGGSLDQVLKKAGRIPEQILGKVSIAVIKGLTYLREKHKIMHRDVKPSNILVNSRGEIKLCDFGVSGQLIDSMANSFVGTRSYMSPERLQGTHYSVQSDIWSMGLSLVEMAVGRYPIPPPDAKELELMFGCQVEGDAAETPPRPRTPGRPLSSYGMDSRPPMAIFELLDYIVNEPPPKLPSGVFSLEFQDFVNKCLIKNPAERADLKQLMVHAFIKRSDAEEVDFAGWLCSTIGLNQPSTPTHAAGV

[23] = target: T1, Muscarinic acetylcholine receptor M2 (Homo sapiens) (UniProt P08172); test: M2 (h) Eurofins-Cerep binding assay; design: ligand concentration 2 nM; conditions: filed as antagonist, Compound concentration 10.0 uM
T1 sequence (whole entry): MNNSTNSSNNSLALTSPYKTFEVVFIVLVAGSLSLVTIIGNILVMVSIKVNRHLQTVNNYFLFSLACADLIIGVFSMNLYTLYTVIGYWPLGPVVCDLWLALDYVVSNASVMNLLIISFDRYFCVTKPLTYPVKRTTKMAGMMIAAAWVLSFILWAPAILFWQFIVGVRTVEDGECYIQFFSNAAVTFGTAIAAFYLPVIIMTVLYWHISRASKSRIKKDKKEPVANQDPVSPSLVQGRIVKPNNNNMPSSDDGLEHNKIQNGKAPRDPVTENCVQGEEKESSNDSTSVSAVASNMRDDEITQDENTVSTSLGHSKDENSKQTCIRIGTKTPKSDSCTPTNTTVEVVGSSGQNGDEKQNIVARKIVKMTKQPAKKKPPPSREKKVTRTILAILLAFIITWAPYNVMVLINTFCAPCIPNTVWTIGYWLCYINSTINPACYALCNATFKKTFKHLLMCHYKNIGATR

[24] = target: Protein kinase C eta type (Homo sapiens) (UniProt P24723); conditions: Compound concentration 1000.0 nM
[25] = target: Serine/threonine-protein kinase 10 (Homo sapiens) (UniProt O94804); conditions: Compound concentration 1000.0 nM
[26] = target: Phosphatidylinositol 4,5-bisphosphate 3-kinase catalytic subunit gamma isoform (Homo sapiens) (UniProt P48736); conditions: Compound concentration 1000.0 nM
[27] = target: Myosin light chain kinase (Homo sapiens) (UniProt Q32MK0); conditions: Compound concentration 1000.0 nM
[28] = target: Type-2 angiotensin II receptor (Homo sapiens) (UniProt P50052); test: AT2 (h) Eurofins-Cerep binding assay; conditions: filed as agonist, Compound concentration 10.0 uM
[29] = target: Serine/threonine-protein kinase SBK1 (Homo sapiens) (UniProt Q52WX2); conditions: Compound concentration 1000.0 nM
[30] = tested on: Epidermal growth factor receptor (Homo sapiens), P00533 [T790M]; conditions: Compound concentration 1000.0 nM
[31] = target: NT-3 growth factor receptor (Homo sapiens) (UniProt Q16288); conditions: Compound concentration 1000.0 nM
[32] = target: 5-hydroxytryptamine receptor 1B (Homo sapiens) (UniProt P28222); test: 5-HT1B(h) Eurofins-Cerep binding assay; design: ligand concentration 1 nM; conditions: filed as antagonist, Compound concentration 10.0 uM
[33] = target: Protein-tyrosine kinase 2-beta (Homo sapiens) (UniProt Q14289); conditions: Compound concentration 1000.0 nM
[34] = tested on: Tyrosine-protein kinase ABL1 (Homo sapiens), P00519 [T315I]; conditions: Compound concentration 1000.0 nM
[35] = tested on: Tyrosine-protein kinase ABL1 (Homo sapiens), P00519 [H396P]; conditions: Compound concentration 1000.0 nM
[36] = target: Serine/threonine-protein kinase 32C (Homo sapiens) (UniProt Q86UX6); conditions: Compound concentration 1000.0 nM
Sequence of Serine/threonine-protein kinase 32C (Homo sapiens) (Q86UX6 whole entry): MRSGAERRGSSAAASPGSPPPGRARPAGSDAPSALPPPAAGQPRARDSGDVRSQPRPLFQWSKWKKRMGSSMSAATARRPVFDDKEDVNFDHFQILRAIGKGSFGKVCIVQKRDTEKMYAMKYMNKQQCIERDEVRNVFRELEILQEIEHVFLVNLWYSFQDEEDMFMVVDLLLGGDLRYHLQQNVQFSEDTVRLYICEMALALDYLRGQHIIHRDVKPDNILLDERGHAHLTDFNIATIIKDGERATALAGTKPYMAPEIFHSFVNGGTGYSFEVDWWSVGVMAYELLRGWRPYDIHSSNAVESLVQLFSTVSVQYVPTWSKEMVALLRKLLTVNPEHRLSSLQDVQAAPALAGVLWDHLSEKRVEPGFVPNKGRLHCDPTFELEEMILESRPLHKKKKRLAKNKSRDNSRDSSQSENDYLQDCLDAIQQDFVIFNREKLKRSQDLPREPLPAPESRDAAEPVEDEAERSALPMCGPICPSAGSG

[37] = target: Interferon-induced, double-stranded RNA-activated protein kinase (Homo sapiens) (UniProt P19525); conditions: Compound concentration 1000.0 nM
[38] = target: RAF proto-oncogene serine/threonine-protein kinase (Homo sapiens) (UniProt P04049); conditions: Compound concentration 1000.0 nM
[39] = target: Tyrosine-protein kinase ABL1 (Homo sapiens) (UniProt P00519); conditions: Compound concentration 1000.0 nM

Sequence of Endothelin-1 receptor (Homo sapiens) (P25101 whole entry): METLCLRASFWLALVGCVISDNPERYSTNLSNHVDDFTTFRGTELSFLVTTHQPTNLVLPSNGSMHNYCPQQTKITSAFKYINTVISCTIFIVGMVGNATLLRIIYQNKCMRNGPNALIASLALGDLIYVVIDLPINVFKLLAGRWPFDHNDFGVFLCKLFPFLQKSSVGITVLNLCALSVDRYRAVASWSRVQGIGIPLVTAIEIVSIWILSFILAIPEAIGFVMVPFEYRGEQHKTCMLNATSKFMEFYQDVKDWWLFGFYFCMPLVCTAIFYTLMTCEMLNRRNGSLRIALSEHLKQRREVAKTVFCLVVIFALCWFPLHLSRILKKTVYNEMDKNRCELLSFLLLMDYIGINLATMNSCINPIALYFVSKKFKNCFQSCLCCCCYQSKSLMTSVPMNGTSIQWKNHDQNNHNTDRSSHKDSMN
Sequence of Serine/threonine-protein kinase MRCK alpha (Homo sapiens) (Q5VT25 whole entry): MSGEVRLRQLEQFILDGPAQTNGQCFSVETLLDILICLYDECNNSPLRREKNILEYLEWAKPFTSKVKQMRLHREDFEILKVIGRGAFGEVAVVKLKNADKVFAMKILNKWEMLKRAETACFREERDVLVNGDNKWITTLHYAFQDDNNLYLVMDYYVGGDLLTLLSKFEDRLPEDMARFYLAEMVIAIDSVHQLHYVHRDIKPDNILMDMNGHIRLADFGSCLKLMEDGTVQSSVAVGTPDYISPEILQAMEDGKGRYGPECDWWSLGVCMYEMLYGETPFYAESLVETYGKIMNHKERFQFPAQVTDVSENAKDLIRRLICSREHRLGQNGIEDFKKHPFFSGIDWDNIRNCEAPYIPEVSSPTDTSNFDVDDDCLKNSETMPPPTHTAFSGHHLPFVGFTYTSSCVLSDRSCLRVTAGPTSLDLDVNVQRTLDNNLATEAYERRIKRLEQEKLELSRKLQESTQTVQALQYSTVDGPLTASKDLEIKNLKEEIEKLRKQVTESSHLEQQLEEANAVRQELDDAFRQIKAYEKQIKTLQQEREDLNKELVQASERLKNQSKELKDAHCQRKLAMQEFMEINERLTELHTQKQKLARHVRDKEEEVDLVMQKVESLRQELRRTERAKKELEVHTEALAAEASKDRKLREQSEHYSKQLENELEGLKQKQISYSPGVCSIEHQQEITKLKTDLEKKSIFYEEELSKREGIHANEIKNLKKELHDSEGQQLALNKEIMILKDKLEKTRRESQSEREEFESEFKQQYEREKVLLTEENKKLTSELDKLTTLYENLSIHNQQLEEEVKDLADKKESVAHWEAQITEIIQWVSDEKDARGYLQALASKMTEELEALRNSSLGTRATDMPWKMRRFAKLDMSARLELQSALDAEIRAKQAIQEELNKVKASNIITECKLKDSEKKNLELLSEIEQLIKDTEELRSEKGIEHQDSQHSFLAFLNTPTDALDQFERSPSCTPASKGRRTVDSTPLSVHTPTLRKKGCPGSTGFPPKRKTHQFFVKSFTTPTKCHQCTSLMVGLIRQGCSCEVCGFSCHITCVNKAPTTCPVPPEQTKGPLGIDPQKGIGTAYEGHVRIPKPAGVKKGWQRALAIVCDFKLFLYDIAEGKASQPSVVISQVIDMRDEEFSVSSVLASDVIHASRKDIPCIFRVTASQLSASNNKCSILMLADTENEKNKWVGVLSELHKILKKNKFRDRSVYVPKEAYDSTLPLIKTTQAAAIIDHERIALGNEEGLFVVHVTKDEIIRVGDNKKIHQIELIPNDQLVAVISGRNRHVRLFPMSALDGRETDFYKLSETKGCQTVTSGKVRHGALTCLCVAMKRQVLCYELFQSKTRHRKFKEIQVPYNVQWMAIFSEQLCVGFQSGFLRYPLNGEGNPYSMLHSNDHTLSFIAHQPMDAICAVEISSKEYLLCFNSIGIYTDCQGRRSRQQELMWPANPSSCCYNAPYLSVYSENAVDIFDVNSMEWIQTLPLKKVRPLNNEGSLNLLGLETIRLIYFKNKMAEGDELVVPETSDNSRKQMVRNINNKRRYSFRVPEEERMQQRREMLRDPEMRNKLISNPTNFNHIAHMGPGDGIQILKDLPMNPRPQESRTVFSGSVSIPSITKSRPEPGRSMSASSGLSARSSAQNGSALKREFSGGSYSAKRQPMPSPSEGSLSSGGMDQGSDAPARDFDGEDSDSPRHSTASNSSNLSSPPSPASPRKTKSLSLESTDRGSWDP

| Compound | residual activity [1] [%] | % Inhibition of Control Specific Binding (Mean n=2) [2] [%] | residual activity [3] [%] | residual activity [4] [%] | residual activity [5] [%] | residual activity [6] [%] | residual activity [7] [%] | residual activity [8] [%] | residual activity [9] [%] | residual activity [10] [%] | residual activity [11] [%] | residual activity [12] [%] | residual activity [13] [%] | residual activity [14] [%] | residual activity [15] [%] | residual activity [16] [%] | residual activity [17] [%] | residual activity [18] [%] | residual activity [19] [%] | residual activity [20] [%] | further results |
| --- | --- | --- | --- | --- | --- | --- | --- | --- | --- | --- | --- | --- | --- | --- | --- | --- | --- | --- | --- | --- | --- |
| CCCOc1ccc([C@H]2[C@H](C(=O)O)[C@@H](c3ccc4c(c3)OCO4)CN2CC(=O)Nc2c(CC)cccc2CC)cc1 [A-192621] | 94 | 97.1 | 77 | 94 | 65 | 73 | 88 | 61 | 95 | 100 | 82 | 92 | 91 | 60 | 92 | 66 | 95 | 87 | 74 | 89 | residual activity [21]: 92%; residual activity [22]: 66%; % Inhibition of Control Specific Binding (Mean n=2) [23]: -8.8%; residual activity [24]: 100%; residual activity [25]: 97%; residual activity [26]: 68%; residual activity [27]: 86%; % Inhibition of Control Specific Binding (Mean n=2) [28]: 2.5%; residual activity [29]: 78%; residual activity [30]: 82%; residual activity [31]: 71%; % Inhibition of Control Specific Binding (Mean n=2) [32]: 12.3%; residual activity [33]: 98%; residual activity [34]: 58%; residual activity [35]: 63%; residual activity [36]: 100%; residual activity [37]: 100%; residual activity [38]: 98%; residual activity [39]: 70% |
| CCCOc1ccc([C@@H]2[C@@H](C(=O)O)[C@H](c3ccc4c(c3)OCO4)CN2CC(=O)Nc2c(CC)cccc2CC)cc1 [A-1806262] | 90 | 63.7 | 89 | 100 | 84 | 88 | 100 | 82 | 98 | 92 | 81 | 92 | 78 | 82 | 100 | 77 | 98 | 92 | 92 | 100 | residual activity [21]: 94%; residual activity [22]: 93%; % Inhibition of Control Specific Binding (Mean n=2) [23]: -7.1%; residual activity [24]: 100%; residual activity [25]: 98%; residual activity [26]: 73%; residual activity [27]: 87%; % Inhibition of Control Specific Binding (Mean n=2) [28]: 20.8%; residual activity [29]: 81%; residual activity [30]: 93%; residual activity [31]: 91%; % Inhibition of Control Specific Binding (Mean n=2) [32]: 13.4%; residual activity [33]: 97%; residual activity [34]: 83%; residual activity [35]: 89%; residual activity [36]: 100%; residual activity [37]: 100%; residual activity [38]: 100%; residual activity [39]: 88% |
